Results published in paper PMC9992173, “Mapping of the extracellular RBP4 ligand binding domain on the RBPR2 receptor for Vitamin A transport” (Frontiers in Cell and Developmental Biology, 2023).
No end group written: not given here.

Target: T1, mouse RBP4 (Mus musculus, UniProt Q00724)
T1 construct: 6XHis; made in house; host or cells: E. coli
Assay: Surface plasmon resonance (SPR) binding of SYL-motif peptides to immobilized RBP4
Conditions: SPR affinity fit, Figure 6B; repeated in the discussion as calculated binding affinity; read-out: Best-fit values Kd
Protocol: Purified RBP4 protein with >90% purity and 0.56 mg/mL concentration was immobilized on Biacore Sensor Chip CM5 (ITDD Biacore S200 Surface Plasmon Resonance instrument at University of Minnesota). The two-flow cell surface activated for using one as blank and other as test. Using Amine Coupling Kit (Cat. No. BR100050; Cytiva, Marlborough, MA, US) 1-ethyl-3-(3-dimethylaminopropyl) carbodiimide hydrochloride (EDC), N-hydroxysuccinimide (NHS), after surface activation, the purified RBP4 with immobilization buffer 10 mM Sodium acetate, pH 5.0, was immobilized with target of 1,200 Response Unit (RU) for achieving Rmax of 30RU in kinetic study. The reaction stopped and washed with Ethanolamine. The system was re-primed with running buffer PBST (phosphate-buffered saline solution with a 0.05% Tween20 detergent solution). The kinetic assay performed on the two flow cells, the blank was used as reference cell and the active cell with RBP4 was used for the binding study. […] The program was run and non-specific binding on the reference cell subtracted bulk refractive index from the active sensorgram and analyzed for the association, dissociation and stabilization of the reads. […]

- Kd: 25.4 µM
Sequence: HVRDKLDMFEDKLESYLTHMNETGTLTPIILQVKELISVTKG [mouse RBPR2]
